The text below walks through data of patent US20100056526A1, “HETEROMONOCYCLIC COMPOUND AND USE THEREOF” (Takeda Pharmaceutical Company Limited, priority 2006, published 2010).

For one test, the target named is T1, PPARγ (Homo sapiens, UniProt P37231).
T1 construct: expressed in transfected cells; host or cells: CHO-K1
T1 sequence (P37231 1-477 isoform P37231-2): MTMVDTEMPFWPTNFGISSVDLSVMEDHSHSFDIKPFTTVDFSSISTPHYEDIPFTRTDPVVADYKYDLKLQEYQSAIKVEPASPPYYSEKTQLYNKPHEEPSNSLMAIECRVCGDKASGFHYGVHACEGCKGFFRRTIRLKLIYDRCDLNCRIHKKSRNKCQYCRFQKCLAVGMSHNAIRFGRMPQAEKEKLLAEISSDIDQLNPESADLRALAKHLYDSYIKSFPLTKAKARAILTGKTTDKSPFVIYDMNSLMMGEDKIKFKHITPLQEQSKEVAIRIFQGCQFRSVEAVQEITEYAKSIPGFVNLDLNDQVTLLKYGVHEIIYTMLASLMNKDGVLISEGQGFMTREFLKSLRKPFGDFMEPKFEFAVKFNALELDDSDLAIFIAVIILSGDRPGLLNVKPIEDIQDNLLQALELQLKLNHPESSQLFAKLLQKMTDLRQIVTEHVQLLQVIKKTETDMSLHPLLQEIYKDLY
T1 sequence (P19793 1-462 partner): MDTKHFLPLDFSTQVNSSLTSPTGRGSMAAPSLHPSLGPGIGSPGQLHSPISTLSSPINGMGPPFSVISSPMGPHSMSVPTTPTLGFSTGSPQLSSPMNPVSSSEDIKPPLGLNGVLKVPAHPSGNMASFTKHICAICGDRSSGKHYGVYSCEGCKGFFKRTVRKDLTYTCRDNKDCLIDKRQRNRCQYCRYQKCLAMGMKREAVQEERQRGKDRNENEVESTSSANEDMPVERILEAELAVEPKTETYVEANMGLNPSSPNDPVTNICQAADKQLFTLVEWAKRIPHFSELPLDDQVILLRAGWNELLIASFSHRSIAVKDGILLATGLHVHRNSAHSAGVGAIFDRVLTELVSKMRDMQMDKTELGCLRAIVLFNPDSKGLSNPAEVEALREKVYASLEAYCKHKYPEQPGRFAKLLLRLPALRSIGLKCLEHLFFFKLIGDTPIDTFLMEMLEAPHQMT
In words: Evaluation of PPARγ activating action (luciferase reporter in PPARγ:RXRα:4ERPP/CHO-K1 cells). In kind it is cell-based. The settings on record: CHO-K1, 24 h; test compound 10^−6 M; luciferase activity relative to control compound X (1 μM) = 100%, non-administration group = 0%; read-out: PPARγ activating action (activation % (10^−6 M)). The essentials: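 CHO-K1 cells stably carrying PPARγ, RXRα and a 4ERPP luciferase reporter were treated with compound for 1 day at 37 °C in F12 medium with 0.1% fatty acid-free BSA. Luciferase activity was read and scaled between no compound (0%) and reference agonist compound X at 1 μM (100%).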

The target in another test is T2, human AT1 receptor (Homo sapiens, UniProt P30556).
T2 construct: expressed in transfected cells; host or cells: CHO-K1
T2 sequence (P30556 1-359): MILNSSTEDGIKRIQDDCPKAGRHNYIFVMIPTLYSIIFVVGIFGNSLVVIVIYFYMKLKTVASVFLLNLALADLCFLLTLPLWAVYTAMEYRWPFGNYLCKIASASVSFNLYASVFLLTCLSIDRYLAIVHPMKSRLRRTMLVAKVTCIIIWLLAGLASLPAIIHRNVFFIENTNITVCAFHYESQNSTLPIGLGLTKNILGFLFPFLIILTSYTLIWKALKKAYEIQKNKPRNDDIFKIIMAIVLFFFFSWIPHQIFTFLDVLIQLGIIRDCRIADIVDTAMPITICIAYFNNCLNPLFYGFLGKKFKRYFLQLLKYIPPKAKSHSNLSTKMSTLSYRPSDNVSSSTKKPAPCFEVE
Nature of the test: Binding assay using human AT1 receptor-expressing CHO-K1 cell membrane fraction ([125I]-angiotensin II). The settings on record: 22.5 pM [125I]-angiotensin II, 9 μg AT1 membrane, 1 hr room temperature; read-out: AT1 receptor binding inhibitory action (IC50 (nM)). The gist of the method:
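CHO-K1 membranes stably expressing AT1 (9 μg) incubated with 22.5 pM [125I]-angiotensin II and compound in 50 mM Tris pH 7.4, 10 mM MgCl2, with or without 0.3 mg/mL fatty acid-free BSA, 1 hr at room temperature. Bound radioactivity counted after GF/C filtration; nonspecific binding with 1 μM CV-11974; IC50 calculated.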

For orientation: IC50 means the midpoint of a concentration-inhibition curve.

Consider `CCCc1nc(C)n(-c2ccc(OC3CCC(O)CC3)cc2)c(=O)c1Cc1ccc(-c2ccccc2-c2noc(O)n2)cc1F` (stereo not shown) [Example 343, 5-{[3-fluoro-2′-(5-oxo-4,5-dihydro-1,2,4-oxadiazol-3-yl)biphenyl-4-yl]methyl}-3-{4-[(4-hydroxycyclohexyl)oxy]phenyl}-2-methyl-6-propylpyrimidin-4(3H)-one], for which the activation at 1 µM at PPARγ was 15.2%. Also, the IC50 at human AT1 receptor worked out at 0.7 nM.
Taken in the same sequence, the figures for `CCCc1nc(C)n(-c2ccc(OC3CCC(=O)CC3)cc2)c(=O)c1Cc1ccc(-c2ccccc2-c2noc(O)n2)cc1F` [Example 346, 5-{[3-fluoro-2′-(5-oxo-4,5-dihydro-1,2,4-oxadiazol-3-yl)biphenyl-4-yl]methyl}-2-methyl-3-{4-[(4-oxocyclohexyl)oxy]phenyl}-6-propylpyrimidin-4(3H)-one] were 21.8% and 1 nM.
On to `CCCc1nc(C)n(-c2ccc(OC3CCC(=O)C(C)C3)cc2)c(=O)c1Cc1ccc(-c2ccccc2-c2noc(O)n2)cc1` (stereo not shown) [Example 356, 2-methyl-3-{4-[(3-methyl-4-oxocyclohexyl)oxy]phenyl}-5-{[2′-(5-oxo-4,5-dihydro-1,2,4-oxadiazol-3-yl)biphenyl-4-yl]methyl}-6-propylpyrimidin-4(3H)-one], for which the activation at 1 µM on PPARγ came out at 16.6%. The IC50 on human AT1 receptor amounted to 1.1 nM.
The like results for `CCCc1nc(CC)n(-c2ccc(OC(C)C)cc2)c(=O)c1Cc1ccc(-c2ccccc2-c2noc(=O)[nH]2)cc1` [Example 362, 2-ethyl-3-(4-isopropoxyphenyl)-5-{[2′-(5-oxo-4,5-dihydro-1,2,4-oxadiazol-3-yl)biphenyl-4-yl]methyl}-6-propylpyrimidin-4(3H)-one] were, in that order, 58.7% and 2.4 nM.
The like results for `CCCc1nc(CC)n(-c2ccc(OC(C)C)c(F)c2)c(=O)c1Cc1ccc(-c2ccccc2-c2noc(=O)[nH]2)cc1` [Example 363, 2-ethyl-3-(3-fluoro-4-isopropoxyphenyl)-5-{[2′-(5-oxo-4,5-dihydro-1,2,4-oxadiazol-3-yl)biphenyl-4-yl]methyl}-6-propylpyrimidin-4(3H)-one] were, in that order, 53.7% and 2.1 nM.
The like results for `CCCc1nc(CC)n(-c2ccc(OC(C)(C)C)cc2)c(=O)c1Cc1ccc(-c2ccccc2-c2noc(=O)[nH]2)cc1` [Example 364, 3-(4-tert-butoxyphenyl)-2-ethyl-5-{[2′-(5-oxo-4,5-dihydro-1,2,4-oxadiazol-3-yl)biphenyl-4-yl]methyl}-6-propylpyrimidin-4(3H)-one] were, in that order, 32.6% and 1.9 nM.
On to `CCCc1nc(CC)n(-c2cccc(C(C)(C)O)c2)c(=O)c1Cc1ccc(-c2ccccc2-c2noc(=O)[nH]2)cc1` [Example 365, 2-ethyl-3-[3-(1-hydroxy-1-methylethyl)phenyl]-5-{[2′-(5-oxo-4,5-dihydro-1,2,4-oxadiazol-3-yl)biphenyl-4-yl]methyl}-6-propylpyrimidin-4(3H)-one], for which the activation at 1 µM at PPARγ was found to be 25.3%. The IC50 on human AT1 receptor was found to be 1.8 nM.
Taken in the same sequence, the figures for `CCCc1nc(OC)n(-c2ccc(OC(C)C)cc2)c(=O)c1Cc1ccc(-c2ccccc2-c2noc(O)n2)cc1` [Example 368, 3-(4-isopropoxyphenyl)-2-methoxy-5-{[2′-(5-oxo-4,5-dihydro-1,2,4-oxadiazol-3-yl)biphenyl-4-yl]methyl}-6-propylpyrimidin-4(3H)-one] were 50.2% and 2 nM.
On to `CCCc1nc(OC)n(-c2ccc(OC(C)(C)C)cc2)c(=O)c1Cc1ccc(-c2ccccc2-c2noc(O)n2)cc1` [Example 369, 3-(4-tert-butoxyphenyl)-2-methoxy-5-{[2′-(5-oxo-4,5-dihydro-1,2,4-oxadiazol-3-yl)biphenyl-4-yl]methyl}-6-propylpyrimidin-4(3H)-one], for which, on PPARγ, the activation at 1 µM is 36.3%. In addition, the IC50 on human AT1 receptor worked out at 1.9 nM.
The like results for `CCCc1nc(CC)n(-c2ccc(OC(C)C)nc2)c(=O)c1Cc1ccc(-c2ccccc2-c2noc(=O)[nH]2)cc1` [Example 373, 2-ethyl-3-(6-isopropoxypyridin-3-yl)-5-{[2′-(5-oxo-4,5-dihydro-1,2,4-oxadiazol-3-yl)biphenyl-4-yl]methyl}-6-propylpyrimidin-4(3H)-one] were, in that order, 48.4% and 2.4 nM.
The like results for `CCCc1nc(CC)n(-c2ccc(OC(C)(C)COC)cc2)c(=O)c1Cc1ccc(-c2ccccc2-c2noc(=O)[nH]2)cc1` [Example 376, 2-ethyl-3-[4-(2-methoxy-1,1-dimethylethoxy)phenyl]-5-{[2′-(5-oxo-4,5-dihydro-1,2,4-oxadiazol-3-yl)biphenyl-4-yl]methyl}-6-propylpyrimidin-4(3H)-one] were, in that order, 22% and 1.7 nM.
The like results for `CCCc1nc(CC)n(-c2ccc(OC(C)(C)CO)cc2)c(=O)c1Cc1ccc(-c2ccccc2-c2noc(=O)[nH]2)cc1` [Example 377, 2-ethyl-3-[4-(2-hydroxy-1,1-dimethylethoxy)phenyl]-5-{[2′-(5-oxo-4,5-dihydro-1,2,4-oxadiazol-3-yl)biphenyl-4-yl]methyl}-6-propylpyrimidin-4(3H)-one] were, in that order, 30.3% and 1.5 nM.
With `CCCc1nc(CC)n(-c2ccc(OC3CCOCC3)cc2)c(=O)c1Cc1ccc(-c2ccccc2-c2noc(=O)[nH]2)cc1` [Example 378, 2-ethyl-5-{[2′-(5-oxo-4,5-dihydro-1,2,4-oxadiazol-3-yl)biphenyl-4-yl]methyl}-6-propyl-3-[4-(tetrahydro-2H-pyran-4-yloxy)phenyl]pyrimidin-4(3H)-one], the activation at 1 µM at PPARγ is 46.9%. Besides, the IC50 on human AT1 receptor turned out to be 1.5 nM.
On to `CCCc1nc(C)n(OC2CCOCC2)c(=O)c1Cc1ccc(-c2ccccc2-c2noc(=O)[nH]2)cc1` [Example 379, 2-methyl-5-{[2′-(5-oxo-4,5-dihydro-1,2,4-oxadiazol-3-yl)biphenyl-4-yl]methyl}-6-propyl-3-(tetrahydro-2H-pyran-4-yloxy)pyrimidin-4(3H)-one], for which the activation at 1 µM at PPARγ came out at 31%. For the same molecule, the IC50 on human AT1 receptor is 3.4 nM.
The like results for `CCCc1nc(CC)n(-c2ccc(OC3CCC[C@H]3O)cc2)c(=O)c1Cc1ccc(-c2ccccc2-c2noc(=O)[nH]2)cc1` (stereo partly drawn) [Example 381, 2-ethyl-3-(4-{[(2R)-2-hydroxycyclopentyl]oxy}phenyl)-5-{[2′-(5-oxo-4,5-dihydro-1,2,4-oxadiazol-3-yl)biphenyl-4-yl]methyl}-6-propylpyrimidin-4(3H)-one] were, in that order, 28.2% and 1.2 nM.
As for `CCCc1nc(CC)n(-c2ccc(OC3CCCC3=O)cc2)c(=O)c1Cc1ccc(-c2ccccc2-c2noc(=O)[nH]2)cc1` (stereo not shown) [Example 382, 2-ethyl-3-{4-[(2-oxocyclopentyl)oxy]phenyl}-5-{[2′-(5-oxo-4,5-dihydro-1,2,4-oxadiazol-3-yl)biphenyl-4-yl]methyl}-6-propylpyrimidin-4(3H)-one], the activation at 1 µM at PPARγ worked out at 27.2%. Besides, the IC50 on human AT1 receptor is 1.2 nM.
Taken in the same sequence, the figures for `CCCc1nc(OC)n(-c2ccc(O[C@@H]3C[C@@H](C)O[C@@H](C)C3)cc2)c(=O)c1Cc1ccc(-c2ccccc2-c2noc(=O)[nH]2)cc1` [Example 388, 3-(4-{[(2R,4s,6S)-2,6-dimethyltetrahydro-2H-pyran-4-yl]oxy}phenyl)-2-methoxy-5-{-[2′-(5-oxo-4.,5-dihydro-1,2,4-oxadiazol-3-yl)biphenyl-4-yl]methyl}-6-propylpyrimidin-4(3H)-one] were 34.4% and 1.6 nM.
